Data published in patent US20210106566A1, “PHARMACEUTICAL COMPOSITION FOR TREATING AND/OR PREVENTING PERIPHERAL NEUROPATHY OR SPINAL CORD INJURY” (NATIONAL UNIVERSITY CORPORATION NAGOYA UNIVERSITY, priority 2015, published 2021).

Experiments:
JNK1/2/3 [1] = assay: Western blot of JNK1/2/3 phosphorylation in primary motor neurons; type: cell-based, mouse
Description: Zonisamide (0, 10, or 20 μmol/L) was added to primary motor neurons 4 hours after the beginning of culture. The cells were rinsed with a buffer (50 mmol/L HEPES pH 7.0, 150 mmol/L NaCl, 1% glycerol, 1% TritonX-100, 1.5 mmol/L MgCl2, 1 mmol/L EGTA, 100 mmol/L NaF, 10 mmol/L sodium pyrophosphate, […], 1 mmol/L PMSF, and 1 mmol/L sodium orthovanadate (V)) at days 2 and 3. Total protein was dissolved in 1× Laemmli buffer, separated on a 10% SDS polyacrylamide gel, and transferred to a polyvinylidene fluoride membrane (Immobilon-P, Millipore). The membrane was washed with Tris-buffered physiological saline with 0.05% Tween 20 (TBS-T) and blocked with TBS-T containing 3% skim milk at room temperature for 1 hour. The membrane was incubated with any of anti-Erk1/2 (#4696, Cell Signaling), anti-phosphorylated Erk1/2 (#4370, Cell Signaling), or anti-phosphorylated JNK1/2/3 (#4668, Cell Signaling) antibody (diluted at 1:1000) at 4° C. overnight. The membrane was washed with TBS-T for 10 minutes three times and incubated with […] secondary antibody conjugated to horseradish peroxidase (HRP, GE Healthcare, 1:6000) at room temperature for 1 hour. The blot was detected with Amersham ECL Western blotting detection reagent (GE Healthcare) and quantified with ImageJ program (http://imagej.nih.gov/ij/index.html).

JNK1/2/3 [2] = assay: JNK1/2/3 phosphorylation in NSC34 cells; type: cell-based, mouse
[3] = test system: severely crushed spinal cord model mice; assay: Severely crushed spinal cord model mice: motor function with BMS score; type: in vivo, mouse; conditions: for BMS score: 30 mg/kg/day intragastrically
Excerpt: Female C57BL/6J mice (8 weeks old; 19.5-22.0 g) were purchased from Charles River. The female C57BL/6J mice were anesthetized by intraperitoneally administering pentobarbital sodium and underwent back incision under a sterile condition to perform laminectomy at the 10th thoracic vertebra. The spinal cord was crushed at 100 kdyn using a tip with a diameter of 1.35 mm on IH Spinal Cord Impactor. After the occurrence of hematoma in the spinal cord was confirmed under a microscope, the wound was closed and 1 ml of physiological saline was subcutaneously injected into the posterior neck region to prevent dehydration. The mice with spinal cord injury were separated into two groups in a blinded fashion. Zonisamide was diluted with olive oil (solvent) to 3 mg/mL and intragastrically administered to mice in one group at 30 mg/kg/day using a disposable probe needle (flexible type, Fuchigami) for consecutive days from the day of surgery. Mice in the other group received only the solvent using a similar procedure for consecutive days. One day after surgery, motor function of mice in both groups was assessed using BMS score (Basso mouse scale; Li et. al. J Neurosurg Spine 4: 165-173 (2006)) in a blinded fashion to select the mice with BMS score of 1 or lower and consider them as severely crushed spinal cord model mice. The mice received 200 mL of water containing trimethoprim (16 mg)/sulfamethoxazole (80 mg) from a feeder to prevent infection for 3 days after surgery. BMS score is scored by rating ankle movement, weight support, stepping, coordinated motion of forelimbs and hindlimbs (coordination), hindlimb position in walking, trunk stability, and tail position, and ranges from 0 to 9; score 0 corresponds to complete paralysis of hindlimb and score 9 corresponds to normal motion; more specifically, BMS score is described as follows: 0: No ankle movement. 1: Slight ankle movement (less than 50% of the range of motion). 2: Extensive ankle movement (equal to and greater than 50% of the range of motion). 3: Plantar placing of the paw or occasional dorsal stepping. 4: Occasional planter stepping with weight support (equal to and less than 50% of forward movement). 5: Frequent or consistent planter stepping (equal to and greater than 50% of forward movement), no coordination of limbs; or frequent or consistent planter stepping, some coordination of limbs, hindlimb paws rotated at initial contact and lift off. 6: Some coordination of limbs, hindlimb paws parallel at initial contact and rotated at lift off; or mostly coordinated, hindlimb paws rotated at initial contact and lift off. […] BMS scores were measured at days 1, 3, 7, 14, 21, and 28 after surgery in a blinded fashion (FIG. 14).

SMILES: NS(=O)(=O)Cc1noc2ccccc12 [Zonisamide, 3-sulfamoylmethyl-1,2-benzisoxazole]
- phosphorylation level of JNK1/2/3 (JNK1/2/3 [1]): did not affect
- phosphorylation level of JNK1/2/3 (JNK1/2/3 [2]): slightly increased
- BMS score ([3]; day 14 after surgery): 3.2±0.3
- BMS score ([3]; day 21 after surgery): 3.2±0.4
- BMS score ([3]; day 28 after surgery): 3.7±0.4
- BMS score compared to the control group ([3]; since day 14 after surgery): significantly higher
